Key:
[1] = ABTS radical scavenging activity assessed as Trolox equivalent antioxidant capacity; assay type: physicochemical
Liver microsomes = test: Antioxidant activity in Wistar rat liver microsomes assessed as inhibition of lipid peroxidation by TBA assay; assay type: functional, Microsome

| SMILES | Activity [1] | IC50 (Liver microsomes) |
| --- | --- | --- |
| Oc1cc(O)c2c(c1)O[C@H](c1ccc(O)c(O)c1)[C@H](O)C2 [(-)-EPICATECHIN] | 0.99 mmol/L | 25 µM |
| O=c1cc(-c2ccc(O)cc2)oc2cc(O)cc(O)c12 [APIGENIN] |  | 100 µM |
| O=C(O)/C=C/c1ccc(O)c(O)c1 [CAFFEIC ACID] | 1.01 mmol/L |  |
| Oc1cc(O)c2c(c1)OC(c1ccc(O)c(O)c1)C(O)C2 (stereo not drawn) [CATECHIN] |  | 51 µM |
| Oc1cc(O)c2c(c1)O[C@H](c1ccc(O)c(O)c1)[C@@H](O)C2 [CATECHIN] | 0.57 mmol/L |  |
| COc1cc(/C=C/C(=O)O)ccc1O [FERULATE] | 0.23 mmol/L |  |
| O=C(O)c1cc(O)c(O)c(O)c1 [GALLIC ACID] | 1.98 mmol/L |  |
| O=c1c(O)c(-c2ccc(O)cc2)oc2cc(O)cc(O)c12 [KAEMPFEROL] | 0.79 mmol/L | 19 µM |
| O=c1c(O)c(-c2ccc(O)cc2O)oc2cc(O)cc(O)c12 [MORIN] | 0.83 mmol/L | 23 µM |
| O=c1c(O)c(-c2cc(O)c(O)c(O)c2)oc2cc(O)cc(O)c12 [MYRICETIN] | 1.02 mmol/L | 10.5 µM |
| O=C1C[C@@H](c2ccc(O)cc2)Oc2cc(O)cc(O)c21 [NARINGENIN] |  | 100 µM |
| O=c1c(O)c(-c2ccc(O)c(O)c2)oc2cc(O)cc(O)c12 [QUERCETIN] | 1.14 mmol/L | 8.5 µM |
| Oc1ccc(/C=C/c2cc(O)cc(O)c2)cc1 [RESVERATROL] | 0.4 mmol/L |  |

— ChEMBL document CHEMBL1152838, “QSAR study of antioxidant activity of wine polyphenols” (Eur J Med Chem, 2009)
